Measurements published in the supplement of paper PMC13380429.

What was measured:
Settings in all cases: 72 h
Caco-2 [1] = assay: cell viability relative to DMSO; higher = less toxic
Calu-3 [2] = assay: as above
HepG2 [3] = assay: as above
Vero E6 [4] = assay: as above
Caco-2 [5] = assay: relative viability EC50 (midpoint between 100% and the lowest measured viability); higher = less toxic
Calu-3 [6] = assay: as above
HepG2 [7] = assay: as above
Vero E6 [8] = assay: as above
Caco-2 [9] = assay: drug sensitivity score (DSS) for viability; higher = more toxic; extreme values may be limits of the assay
Calu-3 [10] = assay: as above
HepG2 [11] = assay: as above
Vero E6 [12] = assay: as above
U2OS [13] = assay: cell viability relative to DMSO; higher = less toxic
U2OS [14] = assay: relative viability EC50 (midpoint between 100% and the lowest measured viability); higher = less toxic
U2OS [15] = assay: drug sensitivity score (DSS) for viability; higher = more toxic; extreme values may be limits of the assay

Row | Structure (SMILES) | cell viability (Caco-2 [1]; 1 nM) [%] | cell viability (Caco-2 [1]; 10 nM) [%] | cell viability (Caco-2 [1]; 100 nM) [%] | cell viability (Caco-2 [1]; 1000 nM) [%] | cell viability (Caco-2 [1]; 10000 nM) [%] | cell viability (Calu-3 [2]; 1 nM) [%] | cell viability (Calu-3 [2]; 10 nM) [%] | cell viability (Calu-3 [2]; 100 nM) [%] | cell viability (Calu-3 [2]; 1000 nM) [%] | cell viability (Calu-3 [2]; 10000 nM) [%] | cell viability (HepG2 [3]; 1 nM) [%] | cell viability (HepG2 [3]; 10 nM) [%] | cell viability (HepG2 [3]; 100 nM) [%] | cell viability (HepG2 [3]; 1000 nM) [%] | cell viability (HepG2 [3]; 10000 nM) [%] | cell viability (Vero E6 [4]; 1 nM) [%] | cell viability (Vero E6 [4]; 10 nM) [%] | cell viability (Vero E6 [4]; 100 nM) [%] | cell viability (Vero E6 [4]; 1000 nM) [%] | cell viability (Vero E6 [4]; 10000 nM) [%] | relative viability EC50 (Caco-2 [5]) [µM] | relative viability EC50 (Calu-3 [6]) [µM] | relative viability EC50 (HepG2 [7]) [µM] | relative viability EC50 (Vero E6 [8]) [µM] | drug sensitivity score (Caco-2 [9]) | drug sensitivity score (Calu-3 [10]) | drug sensitivity score (HepG2 [11]) | drug sensitivity score (Vero E6 [12]) | cell viability (U2OS [13]; 1 nM) [%] | cell viability (U2OS [13]; 10 nM) [%] | cell viability (U2OS [13]; 100 nM) [%] | cell viability (U2OS [13]; 1000 nM) [%] | cell viability (U2OS [13]; 10000 nM) [%] | relative viability EC50 (U2OS [14]) [µM] | drug sensitivity score (U2OS [15])
1 | COc1cc2c(cc1OC)-c1cc3nc4ccccc4nc3n1C(C)(C)C2 | 97.9 | 103 | 106 | 99.1 | 89.1 | 104 | 103 | 99.8 | 95.2 | 97.3 | 98.7 | 83.6 | 89.7 | 95.1 | 76.2 | 108 | 102 | 104 | 92.2 | 107 | > 10 | > 10 | > 10 | > 10 | 0 | 0 | 1.8 | 0 |  |  |  |  |  |  | 
2 | COc1ccc(S(=O)(=O)Nc2cc(Cl)cc(Cl)c2OC)cc1N1CCNCC1 | 102 | 97.9 | 97.9 | 92.9 | 94.7 | 99 | 103 | 99.2 | 106 | 111 | 98.9 | 90.2 | 103 | 98.7 | 102 | 102 | 103 | 99.1 | 98.7 | 91.2 | > 10 | > 10 | > 10 | > 10 | 0 | 0 | 0 | 0 | 109 | 98 | 105 | 96.3 | 100 | > 10 | 0
3 | CS(=O)(=O)N1CCc2c(-c3cnc(N)nc3)nc(N3CCOCC3)nc21 | 93.3 | 97.6 | 96.9 | 72 | 33.3 | 94.2 | 96.3 | 98.2 | 70.5 | 29.3 | 111 | 101 | 95.3 | 72.6 | 33.3 | 104 | 108 | 95.3 | 87.4 | 41.7 | 1.19 | 1.17 | 1.22 | 1.67 | 7 | 7.6 | 6.9 | 5.2 | 99.5 | 97.5 | 99.9 | 92 | 47.1 | 1.98 | 4.2
4 | C[C@@H](Oc1ccc2[nH]nc(/C=C/c3cnn(CCO)c3)c2c1)c1c(Cl)cncc1Cl | 87.3 | 99.5 | 91.5 | 83.3 | 33.1 | 101 | 99.9 | 98.6 | 75.5 | 31.8 | 108 | 102 | 85.5 | 46.4 | 10.6 | 95.3 | 92.4 | 98.6 | 71.9 | 12.7 | 1.61 | 1.26 | 0.617 | 1.35 | 6.1 | 7.2 | 12.1 | 8.9 | 94.3 | 94.3 | 91 | 33.5 | 0.2 | 0.582 | 14
5 | C[C@H](NC[C@H](O)CP(=O)(O)CC1CCCCC1)c1ccc(Cl)c(Cl)c1 | 96.1 | 92.1 | 93.9 | 99.5 | 91.4 | 76.5 | 104 | 95.2 | 102 | 91.7 | 103 | 97.6 | 99.3 | 98.6 | 96.8 | 107 | 101 | 104 | 98.7 | 104 | > 10 | > 10 | > 10 | > 10 | 0 | 0 | 0 | 0 | 94.6 | 102 | 94.2 | 101 | 99.8 | > 10 | 0
6 | C[C@H](c1ccc(F)cc1CCCC(=O)O)N(c1cc(F)ccc1F)S(=O)(=O)c1ccc(Cl)cc1 | 101 | 97.5 | 112 | 92.6 | 89.5 | 105 | 98.9 | 99.4 | 103 | 103 | 93.1 | 103 | 94 | 98.8 | 93.6 | 103 | 100 | 102 | 103 | 98.8 | > 10 | > 10 | > 10 | > 10 | 0.1 | 0 | 0 | 0 | 101 | 93.5 | 97.8 | 93.1 | 96.2 | > 10 | 0
